Drawing on ChEMBL document CHEMBL1148537, “The first de novo designed inhibitors of Plasmodium falciparum dihydroorotate dehydrogenase” (Bioorg Med Chem Lett, 2006), this text covers IC50 and Ki for six compounds.

Molecules are shown by their SMILES. pIC50, pKi: −log10 of the molar value.

Test [1] concerns the target Dihydroorotate dehydrogenase (quinone), mitochondrial (Homo sapiens, UniProt Q02127). Briefly: Binding affinity to human DHODH.
For test [2], the target named is T1, Dihydroorotate dehydrogenase (Plasmodium falciparum, UniProt Q54A96).
T1 sequence (Q54A96 whole entry): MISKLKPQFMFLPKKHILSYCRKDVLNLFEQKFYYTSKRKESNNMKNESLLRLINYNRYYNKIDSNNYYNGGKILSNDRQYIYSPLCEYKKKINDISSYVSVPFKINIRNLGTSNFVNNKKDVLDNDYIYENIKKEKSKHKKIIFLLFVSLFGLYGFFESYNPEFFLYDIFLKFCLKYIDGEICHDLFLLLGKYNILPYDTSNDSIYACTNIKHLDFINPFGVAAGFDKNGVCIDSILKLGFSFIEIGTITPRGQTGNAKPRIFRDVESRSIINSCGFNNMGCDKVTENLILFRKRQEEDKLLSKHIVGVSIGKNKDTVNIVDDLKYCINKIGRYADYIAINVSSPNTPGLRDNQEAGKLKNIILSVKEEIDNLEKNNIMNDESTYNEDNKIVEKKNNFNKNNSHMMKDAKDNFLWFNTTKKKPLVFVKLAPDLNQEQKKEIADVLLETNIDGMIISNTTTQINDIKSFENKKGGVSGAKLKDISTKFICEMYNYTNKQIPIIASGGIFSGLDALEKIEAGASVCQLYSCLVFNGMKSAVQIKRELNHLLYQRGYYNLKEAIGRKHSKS
The test is described as follows: Binding affinity to Plasmodium falciparum DHODH. The following applies: for pKi: read-out: Ki app.

Chain of Dihydroorotate dehydrogenase (quinone), mitochondrial (Q02127 whole entry): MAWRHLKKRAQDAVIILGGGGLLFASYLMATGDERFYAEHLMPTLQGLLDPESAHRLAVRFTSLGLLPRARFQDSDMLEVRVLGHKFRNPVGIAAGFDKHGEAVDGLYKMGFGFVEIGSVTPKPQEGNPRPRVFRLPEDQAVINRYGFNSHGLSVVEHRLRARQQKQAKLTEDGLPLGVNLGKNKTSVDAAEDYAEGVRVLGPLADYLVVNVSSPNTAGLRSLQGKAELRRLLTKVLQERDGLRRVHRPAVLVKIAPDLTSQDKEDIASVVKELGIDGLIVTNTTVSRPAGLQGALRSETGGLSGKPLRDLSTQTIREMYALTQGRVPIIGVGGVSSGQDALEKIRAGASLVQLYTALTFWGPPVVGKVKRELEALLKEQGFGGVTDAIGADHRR

One may read the pIC50 as the IC50 on a negative log10 scale, so that one unit is a factor of ten. Usually pKi stands for the Ki on a negative log10 scale, so that one unit is a factor of ten. Consider `CN(C(=O)c1ccc(-c2ccccc2)cc1)c1ccccc1C(=O)O`, for which the pIC50 in test [1] is under 3.70. Moreover, in test [2], the pIC50 is 4.37 and the pKi was 5.31.
In test [1], `O=C(Nc1ccccc1C(=O)O)c1ccc(-c2ccccc2)cc1` showed a pIC50 of 5.30 and a pKi of 6.15. Besides, in test [2], the pIC50 was 3.81 and the pKi was 4.75.
On to `CN(C(=O)c1ccc2cc(Br)ccc2c1)c1ccccc1C(=O)O`, for which the pIC50 was under 3.70 in test [1] and 4.03 in test [2]. In addition, in test [2], the negative logarithm of the Ki (pKi) was 4.97.
As for `O=C(Nc1ccccc1C(=O)O)c1ccc2ccccc2c1`, in test [1], the negative-log IC50 (pIC50) is 4.86 and the pKi is 5.74. The pIC50 in test [2] was under 3.70.
With `CN(C(=O)c1ccc2ccccc2c1)c1ccccc1C(=O)O`, the pIC50 in test [1] and in test [2] was under 3.70 throughout.
On to `O=C(Nc1ccccc1C(=O)O)c1ccc2cc(Br)ccc2c1`, for which the pIC50 in test [1] was 5.08; in test [2], 3.85. In addition, the pKi is 5.96 in test [1] and 4.79 in test [2].
